Target: T1, LTD4 responses of guinea pig ileum and trachea (Cavia porcellus, UniProt Q2NNR5)
T1 sequence (Q2NNR5 1-340): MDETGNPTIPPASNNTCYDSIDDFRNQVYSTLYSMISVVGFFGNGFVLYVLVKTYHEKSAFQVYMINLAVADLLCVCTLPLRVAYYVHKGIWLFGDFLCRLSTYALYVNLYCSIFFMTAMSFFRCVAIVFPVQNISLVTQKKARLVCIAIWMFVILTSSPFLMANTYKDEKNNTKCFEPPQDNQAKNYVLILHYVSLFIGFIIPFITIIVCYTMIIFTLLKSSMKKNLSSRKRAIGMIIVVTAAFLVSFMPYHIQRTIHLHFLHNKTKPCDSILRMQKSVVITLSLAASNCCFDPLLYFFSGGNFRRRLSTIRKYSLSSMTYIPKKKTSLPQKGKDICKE
Assay: LTD4 antagonism, cumulative LTD4 concentration-response curves in guinea pig ileum and trachea (KB by Furthgott method)
Assay type: cell-based, guinea pig (male Hartley)
Conditions: 30 minute incubation with antagonist, Table I title names ileal contractions

Structure (SMILES)	pKB (negative log of the dissociation KB)
CCCc1c(COc2ccc(Cc3nnn(CCCCCc4nnn[nH]4)n3)cc2)ccc(C(C)=O)c1O.[Na]	7.64
CCCc1c(COc2ccc(Cc3nnn(CCCN(C)C)n3)cc2)ccc(C(C)=O)c1O [Example 15, 5-[(4-((4-Acetyl-3-hydroxy-2-propylphenyl)methoxy)phenyl)methyl]-2-(3-(dimethylamino)propyl)-2H-tetrazole]	6.65
CCCc1c(COc2ccc(Cc3nnnn3CCCN(C)C)cc2)ccc(C(C)=O)c1O [Example 16, 5-[(4-((4-Acetyl-3-hydroxy-2-propylphenyl)methoxy)phenyl)methyl]-1-(3-(dimethylamino)propyl)-1H-tetrazole]	6.01
CCCc1c(COc2ccc(Cc3nnn(CCCSC)n3)cc2)ccc(C(C)=O)c1O [Example 17, 5-[(4-((4-Acetyl-3-hydroxy-2-propylphenyl)methoxy)phenyl)methyl]-2-(3-methylthiopropyl)-2H-tetrazole]	6.45
CCCc1c(COc2ccc(Cc3nnn(CCCCCCc4nnn[nH]4)n3)cc2)ccc(C(C)=O)c1O [Example 27, 1-[2-Hydroxy-3-propyl-4-[[4-[[2-[6-(1H-tetrazol-5-yl)hexyl]-2H-tetrazol-5-yl]methyl]phenoxy]methyl]phenyl]ethanone]	7.38
CCCc1c(COc2ccc(Cc3nnn(CCC(C)(C)Cc4nnn[nH]4)n3)cc2)ccc(C(C)=O)c1O [Example 28]	7.70
CCCc1c(COc2ccc(-c3nnn(CCCc4nnn[nH]4)n3)cc2)ccc(C(C)=O)c1O [Example 36]	7.63
CCCc1c(COc2ccc(-c3nnn(CCCN(C)C)n3)cc2)ccc(C(C)=O)c1O [Example 37, 1-[4-[[4-[2-[3-(Dimethylamino)propyl]-2H-tetrazol-5-yl]phenoxy]methyl]-2-hydroxy-3-propylphenyl]ethanone]	6.37
CCCc1c(COc2ccc(Cc3nnn(Cc4ccc(-c5nnn[nH]5)cc4)n3)cc2)ccc(C(C)=O)c1O [Example 38, 1-[2-Hydroxy-3-propyl-4-[[4-[[2-[[4-(1H-tetrazol-5-yl)phenyl]methyl]-2H-tetrazol-5-yl]methyl]phenoxy]methyl]phenyl]ethanone]	7.90
CCCc1c(COc2ccc(Cc3nnn(CCC[S+](C)[O-])n3)cc2)ccc(C(C)=O)c1O (stereo not shown) [Example 39, 5-[(4-((4-Acetyl-3-hydroxy-2-propylphenyl)methoxy)phenyl)methyl]-2-(3-methylsulfinylpropyl)-2H-tetrazole]	6.50
CCCc1c(COc2ccc(Cc3nnn(CCCS(C)(=O)=O)n3)cc2)ccc(C(C)=O)c1O [Example 40, 5-[(4-((4-Acetyl-3-hydroxy-2-propylphenyl)methoxy)phenyl)methyl]-2-(3-methylsulfonylpropyl)-2H-tetrazole]	6.37

System: LTD4 evoked contractions of guinea pig ileum
Assay: LTD4 antagonism on isolated guinea pig ileum (inhibition of LTD4 evoked ileal contractions, single submaximal LTD4 responses)
Assay type: cell-based, guinea pig (male Hartley)
Conditions: Cavia porcellus, 37° C., five minute exposure to drug, 2-4 concentrations, linear regression interpolation, read-out: -log IC50 (antagonist concentration that produced 50% inhibition of the LTD4 responses) (converted)
Protocol: Male, Hartley guinea pigs weighing 200-450 grams were killed by decapitation. A section of terminal ileum was removed, the lumen cleaned, and the tissue divided into 2.5 cm. segments. The ilea were mounted in 10 ml. tissue baths containing Krebs-bicarbonate solution of the following composition in mmoles/liter: KCl, 4.6; CaCl2 ·2H2 O, 1.2; KH2 PO4, 1.2; MgSO4 ·7H20, 1.2; NaCl, 118.2; NaHCO3, 24.8; and dextrose, 10.0. The bath fluid was maintained at 37° C. and aerated with 95 percent oxygen and 5 percent CO2. In addition, the buffer contained […] atropine to reduce ileal spontaneous activity. Isometric measurements were made with a Grass FTO3C force-displacement transducer and recorded on a Grass polygraph as change in grams of force. A passive force of 0.5 g. was applied to the tissues. After an appropriate equilibration period, single submaximal control responses to pure LTD4 were obtained. Following a five minute exposure of the ileum to an experimental drug, the control concentration of LTD4 was added to the tissue bath. The response of the ileum to LTD4 in the presence of the drug was compared to the response in the absence of the drug. Various degrees of LTD4 antagonism were obtained using 2-4 different concentrations of an experimental compound on a single ileum.

Structure (SMILES)	IC50
CCCc1c(COc2ccc(Cc3nnnn3Cc3nnn[nH]3)cc2)ccc(C(C)=O)c1O [Example 21]	0.0174 µM
CCCc1c(COc2ccc(Cc3nnn(Cc4nnn[nH]4)n3)cc2)ccc(C(C)=O)c1O [Example 22, 1-[2-hydroxy-3-(propyl)-4-[[4-[[2-(1H-tetra-zol-5-ylmethyl)-2H-tetrazol-5-yl]methyl]phenoxyl]methyl]phenyl]ethanone]	0.0117 µM
CCCc1c(COc2ccc(Cc3nnnn3CCCc3nnn[nH]3)cc2)ccc(C(C)=O)c1O [Example 23]	0.0141 µM
CCCc1c(COc2ccc(Cc3nnn(CCCc4nnn[nH]4)n3)cc2)ccc(C(C)=O)c1O [Example 24, 1-2[-Hydroxy-3-propyl-4[[4-[[2-[3-(1H-tetra-zol-5-yl)propyl]-2H-tetrazol-5-yl]methyl]phenoxy]methyl]phenyl]ethanone]	0.0038 µM
CCCc1c(COc2ccc(Cc3nnnn3CCCCc3nnn[nH]3)cc2)ccc(C(C)=O)c1O [Example 25]	0.0191 µM
CCCc1c(COc2ccc(Cc3nnn(CCCCc4nnn[nH]4)n3)cc2)ccc(C(C)=O)c1O [Example 26, 1-[2-Hydroxy-3-propyl-4-[[4-[[2-[4-(1H-tetrazol-5-yl)butyl]tetrazol-5-yl]methyl]phenoxy]methyl]phenyl]ethanone]	0.00813 µM
CCCc1c(COc2ccc(Cc3nnn(CC(=O)O)n3)cc2)ccc(C(C)=O)c1O [Example 31, 5-[[4-[(4-Acetyl-3-hydroxy-2-propylphenyl)methoxy]phenyl]methyl]-2H-tetrazole-2-acetic acid]	0.0282 µM
CCCc1c(COc2ccc(Cc3nnnn3CCCC(=O)O)cc2)ccc(C(C)=O)c1O [Example 32, 5-[[4-[[4-Acetyl-3-hydroxy-2-propylphenyl)methoxy]phenyl]methyl]-1H-tetrazole-1-butyric acid]	0.0575 µM
CCCc1c(COc2ccc(Cc3nnn(CCCC(=O)O)n3)cc2)ccc(C(C)=O)c1O [Example 33, 5-[(4-[(4-Acetyl-3-hydroxy-2-propylphenyl)methoxy]phenyl)methyl]-2H-tetrazole-2-butanoic acid]	0.02 µM
CCCc1c(COc2ccc(Cc3nnnn3CCCCC(=O)O)cc2)ccc(C(C)=O)c1O [Example 34, 5-[(4-[(4-Acetyl-3-hydroxy-2-propylphenyl)methoxy]phenyl)methyl]-1H-tetrazol-1-valeric acid]	0.055 µM
CCCc1c(COc2ccc(Cc3nnn(CCCCC(=O)O)n3)cc2)ccc(C(C)=O)c1O [Example 35, 5-[(4-[(4-Acetyl-3-hydroxy-2-propylphenyl)methoxy]phenyl)methyl]-2H-tetrazole-2-valeric acid]	0.0117 µM

— patent US4820722A, “Disubstituted tetrazoles and their use as leukotriene antagonists” (Eli Lilly and Company, priority 1987, dated 1989)
